One may read the IC50 as the concentration that gives 50% inhibition. A word on the AUC(0-t): it is the area under the concentration-time curve up to a stated or last time point. What is called Cmax is the highest concentration seen after dosing.

Series [1] can be described thus: Liver microsomal stability assay. The series is classed as in vitro ADME. Conditions: human liver microsomes, NADPH, 37°C; read-out: T1/2 (min) Human. How it is done:
The human liver microsome stability assay was performed by co-incubating the compound with human liver microsomes in vitro. The test compounds were first prepared as 10 mM stock solutions in DMSO solvent, and then diluted to 0.5 mM with acetonitrile. Human liver microsomes (Corning) were diluted with PBS to prepare a microsome/buffer solution, and this solution was used to dilute 0.5 mM of the compound to prepare a working solution. In the working solution, a concentration of the compound was 1.5 µM and a concentration of the human liver microsome was 0.75 mg/mL. A deep-well plate was taken, 30 µL of working solution was added to each well of the plate, and then 15 µL of pre-heated NADPH solution (6 mM) was added to start the reaction. The mixture was incubated at 37°C. 135 µL of acetonitrile was added to the corresponding wells to stop the reaction at 0 minute, 5 minutes, 15 minutes, 30 minutes, and 45 minutes of incubation. Subsequent to the stop of the reaction by means of acetonitrile at the last time point of 45 minutes, the plate was vortexed for 10 minutes (600 rpm/min) and then centrifuged for 15 minutes. After the centrifugation, the supernatant was taken, and purified water was added in a 1:1 ratio for LC-MS/MS detection. The ratio of a peak area of the compound to a peak area of the internal standard at individual time points was obtained. The peak area ratios of the compound at 5 minutes, 15 minutes, 30 minutes, and 45 minutes were compared with the peak area ratio at 0 minute, and the remaining percentage of the compound at each time point was calculated. T1/2 was calculated using Graphpad8 software. [Table 3] Liver Microsomal Stability of Compounds

The target in series [2] is T1, AT2R (Homo sapiens, UniProt P50052).
T1 construct: purchased Cisbio #C1TT1AT2
T1 sequence (P50052 1-363): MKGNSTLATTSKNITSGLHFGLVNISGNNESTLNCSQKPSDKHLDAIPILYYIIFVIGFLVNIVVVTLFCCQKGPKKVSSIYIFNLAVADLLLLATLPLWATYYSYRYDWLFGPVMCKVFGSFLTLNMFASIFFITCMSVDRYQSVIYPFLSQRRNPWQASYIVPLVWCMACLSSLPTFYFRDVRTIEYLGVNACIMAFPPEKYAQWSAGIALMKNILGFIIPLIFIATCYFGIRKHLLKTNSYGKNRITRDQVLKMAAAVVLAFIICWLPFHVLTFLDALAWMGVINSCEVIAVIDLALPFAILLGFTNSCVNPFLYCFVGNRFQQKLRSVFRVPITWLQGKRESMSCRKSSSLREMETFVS
As to the kind of experiment: Binding assay of compounds to AT2R (Tag-lite HTRF ligand binding kit). On the procedure: The assay was performed in accordance with the manufacturer instructions of Angiotensin AT2 Receptor Ligand Binding Assay Kit (#C1TT1AT2, Cisbio). First, a 10 mM compound stock solution was diluted in a gradient at a 5× dilution ratio (including 10 concentrations, each with two replicates). 160 nL of compounds at different concentrations was added to a 384-well plate. 40 µL of 1× TLB (TLB: Tag-lite buffer) was added to each well, and the mixture was shaken at room temperature for 15 minutes. A 15 mL centrifuge tube added with 5 mL of 1×TLB was prepared in advance. The frozen labeled cells were thawed in a water bath at 37°C (for 1 to 2 minutes), and the thawed cells were quickly transferred to the above 15 mL centrifuge tube. The mixture was mixed well and centrifuged at 1,000 g at room temperature for 5 minutes. The supernatant was removed, and the cells were resuspended by adding 2.7 mL 1× TLB. A new 384-well plate was taken, and 10 µL of mixed cells were added into the corresponding wells according to the assay design. 5 µL of 4× compound solution and 5 µL of 4× Tag-lite red fluorescent labeled ligand were added to each well. After incubation at room temperature for 1 hour, data were read using EnVision with an HTRF mode. The […] at 665nM and 615nM in each well were read respectively, and the ratio was calculated (Ratio=A665nM/B615nM). The IC50 value was calculated by means of GraphPad Prism8 software, where X represents logarithmic value of compound concentration; and Y represents ratio of A665nM/B615nM.
In general terms: In TR-FRET formats the signal depends on donor and acceptor labels being close together.

Series [3] is described as follows: Pharmacokinetic study following single oral gavage administration to cynomolgus monkeys. The series is classed as in vivo. Conditions: cynomolgus monkey, plasma, 5 mg/kg; Monkey PK PO (5 mpk). How it is done: The compounds were dissolved in a vehicle consisting of 5% DMSO+10% Solutol+85% Saline to a concentration of 1 mg/mL, and administered at a dose of 5 mpk. The animals were weighed before the administration, and the dosing volume was calculated based on the body weight. The compounds were administered to the animals via oral gavage. Blood samples were collected via a femoral vein or other suitable methods at time points of 0.083 hours, 0.25 hours, 0.5 hours, 1 hour, 2 hours, 4 hours, 6 hours, 8 hours, and 24 hours. Approximately 1 mL of each sample was collected at each time point, anticoagulated with sodium heparin, and placed on ice immediately after the collection. After the blood samples were collected, they were placed on ice and centrifuged within 1 hour to separate plasma (centrifugation conditions: 2,200g, 10 minutes, and 2°C to 8°C). The plasma samples were stored in a -80°C refrigerator until analysis.
The bioanalytical method and sample analysis were performed by the Analytical Laboratory of Medicilon Inc. (Shanghai, China). Intra-day accuracy of quality control samples was evaluated concurrently with the sample analysis, requiring that accuracy of more than 66.7% of the quality control samples fell within the range of 80% to 120%. [Table 5] Pharmacokinetics of Compounds in Monkeys

With `COC(=O)NS(=O)(=O)c1sc(CC(C)C)c(C)c1-c1ccc(Cn2ccnc2C(F)(F)F)cc1` [Compound I-9, Methyl ((5-isobutyl-4-methyl-3-(4-((2-(trifluoromethyl)-1H-imidazol-1-yl)methyl)phenyl)thiophen-2-yl)sulfonyl)carbamate], the half-life at 1 µM in series [1] amounted to 50.2 min. Also, the IC50 in series [2] stood at 5.13 nM. In addition, in series [3], the AUC(0-t) was 7790 ng·h/mL and the concentration peaked (Cmax) at 5310 ng/mL.
In the same order, the values of `COC(=O)NS(=O)(=O)c1sc(CC(C)C)c(C)c1-c1ccc(Cn2ccnc2C(C)(C)O)cc1` [Compound I-19, Methyl ((3-(4-((2-(2-hydroxypropan-2-yl)-1H-imidazol-1-yl)methyl)phenyl)-5-isobutyl-4-methylthiophen-2-yl)sulfonyl)carbamate] are 71.2 min, 2.91 nM, 6820 ng·h/mL and 4030 ng/mL.
Regarding `Cc1c(CC(C)C)sc(S(=O)(=O)NC(=O)OCCO)c1-c1ccc(Cn2ccnc2C(F)(F)F)cc1` [Compound I-13, 2-hydroxyethyl ((5-isobutyl-4-methyl-3-(4-((2-(trifluoromethyl)-1H-imidazol-1-yl)methyl)phenyl)thiophen-2-yl)sulfonyl)carbamate], in series [1], the half-life at 1 µM worked out at 46.4 min. Besides, the 50% inhibitory concentration (IC50) in series [2] worked out at 2.6 nM.
Take `Cc1c(CC(C)C)sc(S(=O)(=O)NC(=O)OCC(C)(C)O)c1-c1ccc(Cn2ccnc2C(F)(F)F)cc1` [Compound I-10, 2-hydroxy-2-methylpropyl ((5-isobutyl-4-methyl-3-(4-((2-(trifluoromethyl)-1H-imidazol-1-yl)methyl)phenyl)thiophen-2-yl)sulfonyl)carbamate]: the half-life at 1 µM in series [1] came to 83.2 min. Besides, the 50% inhibitory concentration (IC50) in series [2] is 2.31 nM. In series [3], this molecule came in with an AUC(0-t) of 5570 ng·h/mL and a Cmax of 3560 ng/mL.
Consider `COC(=O)NS(=O)(=O)c1sc(CC(C)C)c(C)c1-c1ccc(Cn2ccnc2Cl)c(F)c1` [Compound I-14, Methyl ((3-(4-((2-chloro-1H-imidazol-1-yl)methyl)-3-fluorophenyl)-5-isobutyl-4-methylthiophen-2-yl)sulfonyl)carbamate], for which the half-life at 1 µM in series [1] was 45 min. This molecule also returned an IC50 in series [2] of 1.39 nM. In series [3], this molecule had an AUC(0-t) of 7350 ng·h/mL and a Cmax of 5040 ng/mL.
For `Cc1c(CC(C)C)sc(S(=O)(=O)Nc2ncccn2)c1-c1ccc(Cn2ccnc2Cl)cc1` [Compound I-23, 3-(4-((2-chloro-1H-imidazol-1-yl)methyl)phenyl)-5-isobutyl-4-methyl-N-(pyrimidin-2-yl)thiophene-2-sulfonamide], the half-life at 1 µM in series [1] turned out to be 39.3 min. The molecule further displayed an IC50 in series [2] of 1.79 nM.
`CCCCOC(=O)NS(=O)(=O)c1sc(CC(C)C)cc1-c1ccc(Cn2ccnc2)cc1` [Control Compound I, reference compound]: in series [1], the half-life at 1 µM stood at 9.13 min. In series [3], this molecule yielded an AUC(0-t) of 4920 ng·h/mL and a Cmax of 1320 ng/mL.

Values taken from patent EP4768479A1 (Hubei Bio-Pharmaceutical Industrial Technological Institute …, priority 2023, dated 2025).
